Where “and” joins values, the source holds several entries; their conditions need not be identical. Identical values can stand only once.
How the values were obtained:
T. brucei TREU 667/1 [1] = assay: Early (3 day old) T. brucei TREU 667/1 infection in mice, cure after i.p. treatment; format: in vivo, Trypanosoma brucei; settings: for Number Cured Out of Total Treated: CFLP mice infected for 3 days
Text: The mice used were adult CFLP females approximately 25-30 g. and maintained on standard laboratory diet throughout the experiments. Two stabilates were used throughout the experiments, the main one was T. brucei TREU 667/1 originally obtained from Dr. A. R. Gray, Edinburgh, and the other T. brucei LUMP 1001 obtained from Professor […], London. These were cryogenically maintained as previously described in Jennings, […], Parasitol. 75, 143-153 (1977). Each mouse was inoculated intraperitoneally with 1 x 10^4 trypanosomes prepared from the stabilate in phosphate glucose saline pH 8.0. Chemotherapy commenced at various times post inoculation. Each mouse was weighed and the requisite dose of drug administered intraperitoneally in a volume of 0.1 ml./5g. body weight. Compounds I, II and III were used in crystalline powder forms. These were first ground finely in an agate mortar and then suspended in physiological saline for intraperitoneal injection. A drop of detergent (Tween 80) was added to the suspensions to facilitate wetting. Care was taken during dispensing that the suspensions were properly dispersed, and because of some slight unavoidable settlement in the syringe, the mice were always injected at random and usually not more than 3 mice were injected from the one syringe full of drug suspension. As the regimen was usually 4 daily doses at the respective drug concentration, any errors were evenly distributed. […] All were prepared according to the manufacturer's instructions and were injected intraperitoneally. The mice were examined for parasites on the day treatment was initiated (usually day 3 or 21 of infection) by examination of a drop of tail blood under x40 objective (wet film technique). […] The three compounds, I, II and III were used at various dose levels against an early infection of T. brucei TREU 667/1 in CFLP. The dose regimen was initiated 3 days after infection and the intraperitoneal injections of drug suspension were given daily.

T. brucei TREU 667/1 [2] = assay: Chronic (21 day old) T. brucei TREU 667/1 infection in mice, cure/relapse after i.p. treatment; format: in vivo, Trypanosoma brucei; settings: for Number Cured Out of Total Treated: mice infected for 21 days; for time after treatment until signs of relapse: some of the mice treated with the prophylactic drugs (pretreatment experiments of Table 3)
Text: The mice used were adult CFLP females approximately 25-30 g. and maintained on standard laboratory diet throughout the experiments.
Two stabilates were used throughout the experiments, the main one was T. brucei TREU 667/1 originally obtained from Dr. A. R. Gray, Edinburgh, and the other T. brucei LUMP 1001 obtained from Professor W. H. R. Lumsden, London. These were cryogenically maintained as previously described in Jennings, Whitelaw & Urquhart, Parasitol. 75, 143-153 (1977).
Each mouse was inoculated intraperitoneally with 1 x 10^4 trypanosomes prepared from the stabilate in phosphate glucose saline pH 8.0. Chemotherapy commenced at various times post inoculation. Each mouse was weighed and the requisite dose of drug administered intraperitoneally in a volume of 0.1 ml./5g. body weight.
Compounds I, II and III were used in crystalline powder forms. These were first ground finely in an agate mortar and then suspended in physiological saline for intraperitoneal injection. A drop of detergent (Tween 80) was added to the suspensions to facilitate wetting. Care was taken during dispensing that the suspensions were properly dispersed, and because of some slight unavoidable settlement in the syringe, the mice were always injected at random and usually not more than 3 mice were injected from the one syringe full of drug suspension. As the regimen was usually 4 daily doses at the respective drug concentration, any errors were evenly distributed.
The other established drugs used were Berenil (diminazene aceturate, obtained from Fabwerke, Hoechst, Germany, 40 mg./kg. unless otherwise specified), Ethidium (homidium bromide 7.5 mg./kg.) and Prothidium (pyrithidium bromide 10 mg./kg. obtained from Boots Pure Drug Co., England) and Samorin (isometamidium 2 mg./kg. obtained from May & Baker Ltd.). […]
The mice were examined for parasites on the day treatment was initiated (usually day 3 or 21 of infection) by examination of a drop of tail blood under x40 objective (wet film technique). Subsequent to treatment they were examined every 2 days for 6 days and thereafter once per week until relapse occurred or until the experiment was terminated (in some instances 6-7 months).
The initial work with Berenil was carried out using the dose rate of 40 mg./kg. which was the dose of drug used in all the original work on chronic infections.
In addition, groups of mice were given Berenil and the Compound III simultaneously, or one injection of Berenil followed by one injection of Compound III in order to compress the treatment into the minimum number of injections.

T. brucei LUMP 1001 [3] = assay: Chronic (21 day old) T. brucei LUMP 1001 infection in mice, cure/relapse after i.p. treatment; format: in vivo, Trypanosoma brucei
Text: The mice used were adult CFLP females approximately 25-30 g. and maintained on standard laboratory diet throughout the experiments. Two stabilates were used throughout the experiments, the main one was T. brucei TREU 667/1 originally obtained from Dr. A. R. Gray, Edinburgh, and the other T. brucei LUMP 1001 obtained from Professor […], London. These were cryogenically maintained as previously described in Jennings, […], Parasitol. 75, 143-153 (1977). Each mouse was inoculated intraperitoneally with 1 x 10^4 trypanosomes prepared from the stabilate in phosphate glucose saline pH 8.0. Chemotherapy commenced at various times post inoculation. Each mouse was weighed and the requisite dose of drug administered intraperitoneally in a volume of 0.1 ml./5g. body weight. Compounds I, II and III were used in crystalline powder forms. These were first ground finely in an agate mortar and then suspended in physiological saline for intraperitoneal injection. A drop of detergent (Tween 80) was added to the suspensions to facilitate wetting. Care was taken during dispensing that the suspensions were properly dispersed, and because of some slight unavoidable settlement in the syringe, the mice were always injected at random and usually not more than 3 mice were injected from the one syringe full of drug suspension. As the regimen was usually 4 daily doses at the respective drug concentration, any errors were evenly distributed. […] All were prepared according to the manufacturer's instructions and were injected intraperitoneally. The mice were examined for parasites on the day treatment was initiated (usually day 3 or 21 of infection) by examination of a drop of tail blood under x40 objective (wet film technique). […] It was known that T. brucei LUMP 1001 relapsed after treatment of a 21 day old infection Jennings, […], Parasitol. 75, 143-153 (1977), and indeed tended to relapse earlier after treatment with Berenil at 40 mg./kg. than any of the other stabilates tested (approximately 20 days). The original experiment using 40 mg./kg. Berenil as pre-treatment followed by Compound III was disappointing, as only 3 out of a total of 27 mice appeared to be cured by the various dose regimens. The experiment was therefore repeated increasing the pretreatment dose of Berenil to 60 mg./kg. and 80 mg./kg., the latter being given as two doses of 40 mg./kg. on consecutive days to avoid the possibility of deaths due to the toxicity of Berenil at that dose level in mice. This pretreatment was followed by administration of Compound III at 4 doses of 80 mg./kg. and in both instances where the increased Berenil dose level (60 mg./kg. and 80 mg./kg.) was used, satisfactory permanent cures were accomplished, whereas in the respective controls all of the mice relapsed.

T. brucei LUMP 1001 [4] = settings: 21 day old infection; Berenil at 40 mg./kg.; cited from earlier work
[5] = Berenil 40 mg./kg. day 21, no further treatment
[6] = 4 x 5 mg./kg. daily i.p., cure = no parasites in blood for at least 90 days
[7] = 4 x 20 mg./kg. daily i.p., cure = no parasites in blood for at least 90 days
[8] = single drug 4 x 20 mg./kg. daily i.p.

## N=C(N)c1ccc(N=NNc2ccc(C(=N)N)cc2)cc1 [Berenil, diminazene aceturate]
T. brucei TREU 667/1 [1]; early infection, Berenil 5 mg./kg.
  permanent cure of early infections: can be permanently cured
T. brucei TREU 667/1 [2]; 5 mg./kg. Berenil
  time for which all circulating trypanosomes are cleared from the bloodstream: up to 20 days
T. brucei TREU 667/1 [2]; 21 day old infection, 160 mg./kg. Berenil given subcutaneously
  outcome after treatment: relapsed
T. brucei TREU 667/1 [2]; Berenil 5 mg./kg. day 21, no further treatment
  No. Cured Out of Total Treated: 0/10
T. brucei TREU 667/1 [2]; Berenil 5 mg./kg. day 21, then Berenil 5 mg./kg. day 24
  No. Cured Out of Total Treated: 0/10
T. brucei TREU 667/1 [2]; Berenil 20 mg./kg. day 21, no further treatment
  No. Cured Out of Total Treated: 0/10
T. brucei TREU 667/1 [2]; [5]
  No. Cured Out of Total Treated: 1/10 and 1/9
T. brucei TREU 667/1 [2]; Berenil (40 mg./kg.) given alone, in the particular experiment with the simultaneous group
  cure rate: 60%
T. brucei TREU 667/1 [2]; infected 21 days, Berenil alone 40 mg./kg., retreated every 30 days for a total of 5 months, a proportion of mice
  outcome after repeated treatment: eventually become parasitaemic again
T. brucei LUMP 1001 [3]; [5]
  No. Cured Out of Total Treated: 0/10 and 0/9
T. brucei LUMP 1001 [3]; Berenil 60 mg./kg. day 21, no further treatment
  No. Cured Out of Total Treated: 0/8
T. brucei LUMP 1001 [3]; Berenil 80 mg./kg., given as 2 x 40 mg./kg. on day 21 and day 24, no further treatment
  No. Cured Out of Total Treated: 0/8
T. brucei LUMP 1001 [4]
  time to relapse after treatment: approximately 20 days

## Cn1c([N+](=O)[O-])cnc1COC(N)=O [Compound I, 1-methyl-5-nitroimidazol-2-ylmethylcarbamate]
T. brucei TREU 667/1 [1]; [6]
  Number Cured Out of Total Treated: 0/8
T. brucei TREU 667/1 [1]; [7]
  Number Cured Out of Total Treated: 0/8

## Cn1c([N+](=O)[O-])cnc1C1=NOC2CCCCC12 (stereo not drawn) [Compound II, 3'-(1-methyl-5-nitroimidazol-2-yl)-4'5'-tetramethylene-Δ^2-isoxazoline]
T. brucei TREU 667/1 [1]; 3-day old infection, 4 doses of 80 mg./kg.
  cure rate: 100%
T. brucei TREU 667/1 [1]; [6]
  Number Cured Out of Total Treated: 0/8
T. brucei TREU 667/1 [1]; [7]
  Number Cured Out of Total Treated: 2/8
T. brucei TREU 667/1 [1]; 4 x 80 mg./kg. daily i.p., separate experiment
  Number Cured Out of Total Treated: 10/10
T. brucei TREU 667/1 [2]; [8]
  Number Cured Out of Total Treated: 0/9

## Cn1c([N+](=O)[O-])cnc1C1=NOC2CCCCCCC12 (stereo not drawn) [Compound III]
T. brucei TREU 667/1 [1]; 3-day old infection, 4 doses at 20 mg./kg.
  cure: 100%
T. brucei TREU 667/1 [1]; [6]
  Number Cured Out of Total Treated: 2/8
T. brucei TREU 667/1 [1]; [7]
  Number Cured Out of Total Treated: 8/8
T. brucei TREU 667/1 [2]; established (21 day) infection, 4 doses at 80 mg./kg.
  period after treatment until the last of the mice relapsed: 42 days
T. brucei TREU 667/1 [2]; [8]
  Number Cured Out of Total Treated: 0/9 and 0/10 and 0/8
T. brucei TREU 667/1 [2]; single drug 4 x 80 mg./kg. daily i.p.
  Number Cured Out of Total Treated: 0/10
T. brucei TREU 667/1 [2]; no pretreatment, III 4 x 20 mg./kg. commencing day 24
  No. Cured Out of Total Treated: 0/8
T. brucei LUMP 1001 [3]; no pretreatment, III 4 x 80 mg./kg. commencing day 24
  No. Cured Out of Total Treated: 0/10

## CC[n+]1c(-c2ccccc2)c2cc(N)ccc2c2ccc(N)cc21 [Ethidium, homidium bromide]
T. brucei TREU 667/1 [2]; Ethidium 7.5 mg./kg. day 21, no further treatment
  No. Cured Out of Total Treated: 0/10

## Cc1cc(Nc2ccc3c(c2)c(-c2ccc(N)cc2)[n+](C)c2cc(N)ccc32)nc(N)[n+]1C.[Br-].[Br-] [Prothidium, pyrithidium bromide]
T. brucei TREU 667/1 [2]; Prothidium 10.0 mg./kg. day 21, no further treatment
  No. Cured Out of Total Treated: 0/8
T. brucei TREU 667/1 [2]
  time after treatment until signs of relapse: 6-7 months

## CC[n+]1c(-c2ccccc2)c2cc(N/N=N/c3cccc(C(=N)N)c3)ccc2c2ccc(N)cc21 [Samorin, isometamidium]
T. brucei TREU 667/1 [2]; Samorin 2.0 mg./kg. day 21, no further treatment
  No. Cured Out of Total Treated: 0/10
T. brucei TREU 667/1 [2]
  time after treatment until signs of relapse: 6-7 months
